From patent publication US20110268722A1, “COMBINATION THERAPIES WITH MITOCHONDRIAL-TARGETED ANTI-TUMOR AGENTS” (priority 2010, published 2011)
Where a SMILES comes first, the peptide text is derived from it. The star is where a group is joined. Cbz = O=C(OCc1ccccc1)*; CH2F = FC*

Tests used:
U87 cells [1] = assay: MTT viability with inhibitors of phagosome formation plus G-TPP; assay type: cell-based, human; conditions: inhibitor 1 hour then G-TPP, MTT after 16 hours
Procedure: FIG. 11A is a graph of the percent viability of U87 cells following incubation with inhibitors of phagosome formation, bafilomycin A (BF) or 3-methyladenine (3-MA), for 1 hour and treatment with G-TPP. MTT analysis was performed after 16 hours with MTT. The mean data±standard deviation are shown.
(§1) For autophagy, glioblastoma cells were transfected with an LC3-GFP cDNA by FuGENE HD (Roche), treated with vehicle, nontargeted 17-AAG, or G-TPP, and analyzed by fluorescence microscopy. […] An average of 200 cells was counted in 4-6 independent fields per condition. In some experiments, G-TPP-treated cells were incubated with pharmacologic inhibitors of autophagy, BF, or 3-MA, and analyzed after 16 hours for modulation of cell viability by MTT.

[2] = test system: FLIP promoter in U251 cells; assay: FLIP luciferase promoter activity; assay type: cell-based, human
Procedure: FIG. 13A is a graph showing the RLU of U251 cells from luciferase produced from a FLIP promoter following no treatment or treatment with two different concentrations of G-TPP. The luciferase data are normalized to β-galactosidase. The mean data±standard deviation are shown.
(§2) FIG. 14B is a graph showing the RLU of U251 cells from luciferase produced from a NF-κB or cFLIP promoter following treatment with non-targeted 17-AAG. Cells were analyzed after 9 hours for luciferase activity. The mean data±SEM of replicates of a representative experiment are shown.
(§3) Tumor cell types were transfected with NF-κB (Mehrota et al., Cancer Cell 17:53-64, 2010), p53, or FLIP luciferase promoter construct (pGL3-FLIP1500; Addgene #16016) using FuGENE HD. After 24 hours at 37° C., cells were stimulated with G-TPP or 17-AAG (0-10 μM) for 6 hours, harvested, and analyzed for β-galactosidase-normalized luciferase activity in a luminometer, as described (Mehrota et al., Cancer Cell 17:53-64, 2010). In some experiments, β-galactosidase-normalized NF-κB promoter activity was examined after cell stimulation with TNF-α, as described (Mehrota et al., Cancer Cell 17:53-64, 2010).

[3] = test system: NF-κB promoter in U251 cells; assay: NF-κB luciferase promoter activity; assay type: cell-based, human; conditions: U251, luciferase normalized to β-galactosidase
Procedure: FIG. 12A is a graph showing the relative light units (RLU) of U251 cells from luciferase produced from a NF-κB promoter following no treatment or treatment with G-TPP or TRAIL. The luciferase data are normalized to β-galactosidase. TRAIL (800 ng/mL) was used as a control. The mean data±standard deviation are shown.
FIG. 12B is a graph showing the RLU of U251 cells from luciferase produced from a NF-κB promoter following no treatment or treatment with G-TPP in the presence or absence of TNF-α. The luciferase data are normalized to β-galactosidase. The mean data±standard deviation are shown.
as §2, §3

LN229 cells [4] = assay: Electron microscopy of treated cells; assay type: cell-based, human; conditions: 5-10 μM, 16 hours
Procedure: Subconfluent monolayers of LN229 cells were incubated with PBS, pH 7.2, or G-TPP or nontargeted 17-AAG (5-10 μM) for 16 hours at 37° C. Cells were washed briefly in 0.1 M PBS, pH 7.4, fixed in buffered 2.5% glutaraldehyde (GA) with or without 4% formaldehyde (FA) or for 30 minutes at 22° C., post-fixed in 1% osmium tetroxide, and processed by standard methods for epoxy embedding. In some experiments, cells were fixed in buffered 3% FA with 0.1% GA for 25 minutes at 22° C., washed, quenched with NH4Cl, and dehydrated for embedding in LR White resin. Ultrathin sections on nickel grids were treated for heat-induced antigen retrieval and blocked with buffered 1% BSA, as described in published protocols (Yamashita et al., Methods Mol. Biol. 657:237-248, 2010). Samples were incubated with an antibody to COX IV, followed by a colloidal gold-conjugated (12 nm) secondary antibody of appropriate specificity (Jackson ImmunoResearch). Grids were briefly post-fixed with 2% GA, washed, air dried, and then exposed to osmium tetroxide vapors for 20 minutes. Ultrathin sections were stained with uranyl acetate and lead citrate before examination in a Philips CM10 transmission electron microscope.

[5] = test system: RelB, Bcl-3 mRNA in LN229 cells; assay: RelB and Bcl-3 mRNA expression; assay type: cell-based, human
Description: FIG. 13C is a Northern blot showing the PCR-amplified expression of RelB, Bcl-3, and GAPDH mRNA in LN229 cells following treatment with G-TPP.

U251 cells [6] = assay: LC3-GFP fluorescence microscopy (autophagy); assay type: cell-based, human; conditions: 16 hours
Procedure: FIG. 10B is a fluorescence photomicrograph and a graph of the percentage of fluorescent U251 cells following transfection of U251 cells with LC3-GFP and treatment for 16 hours with vehicle (left photomicrograph) or G-TPP (right photomicrograph).
as §1

U87 cells [7] = assay: LC3 immunoblot (autophagy); assay type: cell-based, human; conditions: over time
Procedure: FIG. 10A is an immunoblot of lysates from U87 cells following treatment with G-TPP for the indicated periods of time. The position of the unmodified (I) and lipidated form (II) form of LC3 are indicated.
(§4) The various cell types were seeded in triplicate onto 96-well plates at 2×10^3 cells/well, treated with vehicle, G-TPP, or nontargeted 17-AAG (0-20 μM) for up to 24 hours, and quantified for metabolic activity by a 3(4,5-dimethyl-thyazoyl-2-yl)2,5 diphenyltetrazolium bromide (MTT) colorimetric assay with absorbance at 405 nm, as described in Plescia et al. (Cancer Cell 7:457-468, 2005). Changes in protein expression under the various combination regimens were determined by immunoblotting.

FLIP in LN229 cells = assay: FLIP protein immunoblot; assay type: cell-based, human
Procedure: FIG. 13B is two immunoblots lysate from LN229 cells following treatment with G-TPP. The top immunoblot is a dose response experiment. The bottom immunoblot is a time-course experiment. FLIP (L) is the FLIP long form. FLIP(S) is the FLIP short form.
as §4

[8] = test system: U87-luc glioblastoma cells; assay: Orthotopic glioblastoma tumor model, bioluminescence imaging; assay type: in vivo; conditions: CB17 SCID/beige mice; TRAIL 2 μg intracranially, TPP intraperitoneally
Procedure: Since Gamitrinib-TPP dramatically sensitizes cancer cells in vitro it was of highest interest to assess efficacy in vivo. To this end, efficacy of TRAIL, TPP, or the combination of both was determined in an orthotopic glioblastoma tumor model. Twenty nude mice were intracranially injected with U87-luc glioblastoma cells. U87 glioblastoma cells stably transfected with a luciferase expression plasmid (U87-Luc) were suspended in sterile PBS, pH 7.2, and stereotactically implanted (1×10^5) in the right cerebral striatum of immunocompromised CB17 SCID/beige female mice (Charles River Laboratories). Treatment group 1 received only vehicle solutions. Group 2 received TRAIL intracranially (2 μg) and carrier solution intraperitoneally. Group 3 received PBS intracranially and TPP intraperitoneally in a carrier solution consisting of 20% Cremophor in PBS. Group 4 received both TRAIL and TPP. Tumor growth was assessed after each intracranial injection by application of 58 mg/kg D-luciferin and subsequent bioluminescence imaging using a Xenogen In Vivo Imaging System. […]
Five days after injection of U87-luc glioblastoma cells, the mice were scanned, quantified and according to signal strength randomized into 4 treatment groups (Group 1: Vehicle, Group 2: TRAIL, Group 3: TPP, Group 4: TRAIL+TPP) (FIGS. 5A, 6A).

U251 cells [9] = assay: Western blotting of caspase, BID and PARP cleavage; assay type: cell-based, human; conditions: 5 μM TPP-GA, 20 ng/ml TRAIL, alone or combined, 16 hours
Procedure: (§5) Western blotting was employed to elucidate the proteolytic mechanism in TRAIL and TRAIL+Gamitrinib-induced apoptosis. Since Gamitrinibs augment TRAIL-induced apoptosis, the activation/cleavage of caspases-3, -7, -8, -9, BH3 interacting domain death agonist (BID), and Poly-ADP-ribose polymerase (PARP) was examined. […] The time course of activation/cleavage of caspases-3, -7, -8, -9, BID, and PARP over 24 hours was also examined following treatment of LN229 (FIG. 3C) or U251 (FIG. 3D) cells with 5 μM TPP-GA and 200 or 20 ng/ml TRAIL, respectively.

LN229 cells [10] = assay: Western blotting of caspase, BID and PARP cleavage; assay type: cell-based, human; conditions: 5 μM TPP-GA, 200 ng/ml TRAIL, alone or combined, 16 hours
Procedure: as §5

[11] = test system: p53 promoter in MCF-7 cells; assay: p53 luciferase promoter activity; assay type: cell-based, human; conditions: MCF-7, after 5 hours
Procedure: FIG. 14A is a graph showing the RLU of MCF-7 cells from luciferase produced from a p53 promoter following no treatment or treatment with G-TPP, Eto 10, Eto 10 and G-TPP, Eto 20, and Eto 20 and G-TPP. Cells were analyzed after 5 hours for β-galactosidase-normalized p53 luciferase promoter activity.
as §3

U251 cells [12] = assay: Annexin V / propidium iodide flow cytometry; assay type: cell-based, human; conditions: 5 μM TPP-GA, 25 ng/ml TRAIL, alone or combined
cancer cells = assay: Pan-caspase inhibitor effect on TRAIL+Gamitrinib apoptosis and caspase cleavage; assay type: cell-based
Procedure: as §5

Row | Compound | glioblastoma cell death induced by suboptimal concentrations of G-TPP (MTT) (U87 cells [1]) | FLIP promoter activity [2] | NF-κB-mediated gene expression, constitutive [3] | cell ultrastructure (electron microscopy) (LN229 cells [4]) | tumor size (bioluminescence) [8] | cleavage of caspase-3 or -7 (U251 cells [9]) | cleavage of caspase-3 or -7 (LN229 cells [10]) | Annexin V positive and PI-negative tumor cells (apoptosis) (U251 cells [12]) | other results
1 | Cn1cnc(N)c2ncnc1-2 [3-methyladenine] | enhanced glioblastoma cell death | – | – | – | – | – | – | – | –
2 | C=CCNC1=C2C[C@@H](C)C[C@H](OC)[C@H](O)[C@@H](C)/C=C(\C)[C@H](OC(N)=O)[C@@H](OC)/C=C\C=C(/C)C(=O)NC(=CC1=O)C2=O [Gamitrinib 17-AAG, 17-allylamino demethoxygeldanamycin, reference compound] | – | no effect | no effect | unremarkable | – | – | – | – | –
3 | CO[C@H]1/C=C\C=C(/C)C(=O)NC2=CC(=O)C(NCCCCCC[P+](c3ccccc3)(c3ccccc3)c3ccccc3)=C(C[C@@H](C)C[C@H](OC)[C@H](O)[C@@H](C)/C=C(\C)[C@@H]1OC(N)=O)C2=O [Gamitrinib-TPP, triphenylphosphonium geldanamycin] | – | rapid downregulation | complete ablation | became completely filled with cytoplasmic vacuoles | did not show any significant reduction in tumor size | did not or only weakly induce cleavage of caspase-3 or -7 | did not or only weakly induce cleavage of caspase-3 or -7 | no significant effects | RelB and bcl-3 mRNA [5]: rapid downregulation; LC3-GFP fluorescence pattern (U251 cells [6]): exhibited a punctate fluorescence pattern; LC3 lipidated form (immunoblot) (U87 cells [7]): accumulated a lapidated form of the ubiquitin-like protein, light chain 3 (LC3); FLIP protein expression (FLIP in LN229 cells): rapid downregulation; NF-κB-mediated gene expression after stimulation with TNF-α [3]: complete ablation; etoposide-mediated induction of p53 luciferase promoter activity [11]: unaffected
4 | CO/C1=C\C(C)=C\[C@@H](C)[C@@H](O)[C@@H](C)C/C(C)=C/C=C/[C@H](OC)[C@@H]([C@@H](C)[C@@H](O)[C@H](C)[C@@]2(O)C[C@@H](O)[C@H](C)[C@@H](C(C)C)O2)OC1=O [bafilomycin A] | enhanced glioblastoma cell death | – | – | – | – | – | – | – | –
5 | COC(=O)CC(NC(=O)C(C)NC(=O)C(NC(=O)OCc1ccccc1)C(C)C)C(=O)CF (stereo not drawn) [zVAD-fmk, benzyloxycarbonyl-Val-Ala-Asp(OMe)-fluoromethyl-ketone] (Cbz-Val-Ala-Asp(OMe)-CH2F; configuration not given here) | – | – | – | – | – | – | – | – | effect on cleavage of caspases induced by the combination of TRAIL and TPP-GA (cancer cells; Western blotting): abolished cleavage of caspases; effect on TRAIL+Gamitrinib mediated apoptosis (cancer cells; pan-caspase inhibitor added to the combination): significantly attenuated
6 | TRAIL: Recombinant TRAIL obtained from Peprotech; death receptor agonist | – | – | – | – | did not show any significant reduction in tumor size | did not or only weakly induce cleavage of caspase-3 or -7 | did not or only weakly induce cleavage of caspase-3 or -7 | no significant effects | –
